{
  "source": "paper PMC10571957",
  "about": "“αV-Integrin-Dependent Inhibition of Glioblastoma Cell Migration, Invasion and Vasculogenic Mimicry by the uPAcyclin Decapeptide” (Cancers, 2023)",
  "key": {"[1]": {"system": "U251-MG cells (αV integrin)", "test": "FITC-uPAcyclin receptor binding/competition, U251-MG", "design": "species or system human", "details": "unlabeled uPAcyclin vs FITC-uPAcyclin, 4 °C", "protocol": "The U87-MG, U251-MG, and U138-MG cell lines were harvested and acid-treated, as described. Then, 2 × 10^6 cells/sample were exposed for 30 min at 4 °C to uPAcyclin or S-uPAcyclin at the indicated concentrations, or with the following antibodies: VNR147 monoclonal anti-αV integrin (Chemicon Int. Inc., Temecula, CA, USA), polyclonal anti-αV (Millipore, Burlington, MA, USA), monoclonal anti-α2 (Chemicon Int. Inc., Temecula, CA, USA), polyclonal anti-actin (Sigma-Aldrich, St. Louis, MO, USA), monoclonal anti-GAPDH (Abcam, Cambridge, UK), and purified vitronectin (VN, Corning, Glendale, AZ, USA). The cells were subsequently incubated with 50 nM FITC-uPAcyclin for 2 h at 4 °C, as described. At the end of incubation, the cells were washed and the cell surface-associated fluorescence was determined using a fluorimeter (VICTOR^TM X3-PerkinElmer, Waltham, MA, USA). All binding assays were performed three times, with duplicate samples, and analyzed as described in Section 2.11.\nFigure 2 αV expression of U87-MG, U251-MG, and U138-MG GBM cells and specific binding of FITC-uPAcyclin. […] At the end of the incubation, the unbound material was washed and cell-associated FITC-uPAcyclin was quantitated by a fluorimeter. The net value of cell-surface-associated fluorescence, corresponding to the specific binding, is shown. […]"}, "VE-cadherin": {"system": "VE-cadherin", "test": "VE-cadherin expression in matrix-recovered U251-MG cells (Western blot)", "format": "cell-based, human", "details": "1 µM uPAcyclin, VM-forming U251-MG, 24 h", "excerpt": "Whole cells were lysed as described, and resolved by SDS-PAGE, followed by Western blotting with PVDF membranes (Millipore, Burlington, MA, USA). The filters were probed with the following antibodies: polyclonal anti-VE Cadherin (Bioss Antibodies, Woburn, MA, USA), polyclonal anti-αV (Millipore), polyclonal anti-GAPDH (Elabscience, Houston, TX, USA), and polyclonal anti-actin (Sigma-Aldrich, St. Louis, MO, USA). Then, goat anti-rabbit IgG-HRP (Sigma) or goat anti-mouse IgG-HRP (Santa Cruz Biotechnology, Dallas, TX, USA) were employed as secondary antibodies. […] Films were imaged using the CanoScan 4400F (Canon, Tokyo, Japan) at 300 dpi, with the Adobe Photoshop Creative Suite 2 or CS2, and bands were quantified with the ImageJ 1.52a software (NIH, Bethesda, MD, USA).\nTo analyze matrix-embedded U251-MG cells, cells undergoing VM for 24 h were extracted using a 2× mixture of Trypsin, Accutase, and Dispase (1:1:1), acting for 45 min at 37 °C. […] The supernatants were collected and the protein concentration was quantified using the Bradford assay (Biorad, Hercules, CA, USA).\nFigure 8 Vascular mimicry formation and VE-cadherin expression inhibited by uPAcyclin in U251-MG cells. […] (B) The quantitation of the branching point number is described in the legend to Figure 6B. […] The densitometric quantitation of VE-cadherin bands is shown (right panel) (* p-value < 0.05; *** p-value < 0.001)."}},
  "data": [
    {"substance": "Ac-K^1P[ESPPEELK^10]-NH2 (sidechain bridge or staple) [uPAcyclin]", "values": [
      {"measurement": "Kdapp", "setting": "[1]", "value": "low nanomolar range"},
      {"measurement": "VE-cadherin expression", "setting": "VE-cadherin", "value": "markedly reduced"}
    ]}
  ]
}
